PubChem BioAssay (NCI)
Several values for one entry are separate records, joined by “and”; a condition that tells them apart may be missing. Equal entries are not always repeated.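 These data come from cells grown in 96-well plates and exposed to compound for 48 hours at five concentrations. At the GI50, growth is halved. TGI: concentration producing complete growth inhibition.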

Columns and labels:
Experiment in all cases: NCI-60 cell line screen, 48 h
HS 578T breast = system: HS 578T breast
HL-60(TB) leukemia = system: HL-60(TB) leukemia
CCRF-CEM leukemia = system: CCRF-CEM leukemia
SK-MEL-28 melanoma = system: SK-MEL-28 melanoma
SK-MEL-5 melanoma = system: SK-MEL-5 melanoma
SN12C renal = system: SN12C renal
UACC-62 melanoma = system: UACC-62 melanoma
A498 renal = system: A498 renal
SW-620 colon = system: SW-620 colon
UACC-257 melanoma = system: UACC-257 melanoma

| SMILES | TGI (HS 578T breast) | TGI (HL-60(TB) leukemia) | TGI (CCRF-CEM leukemia) | TGI (SK-MEL-28 melanoma) | TGI (SK-MEL-5 melanoma) | TGI (SN12C renal) | TGI (UACC-62 melanoma) | TGI (A498 renal) | TGI (SW-620 colon) | TGI (UACC-257 melanoma) | GI50 (HS 578T breast) | GI50 (HL-60(TB) leukemia) | GI50 (SK-MEL-28 melanoma) | GI50 (SK-MEL-5 melanoma) | GI50 (SN12C renal) | GI50 (UACC-62 melanoma) | GI50 (A498 renal) | GI50 (CCRF-CEM leukemia) | GI50 (UACC-257 melanoma) | GI50 (SW-620 colon) |
| --- | --- | --- | --- | --- | --- | --- | --- | --- | --- | --- | --- | --- | --- | --- | --- | --- | --- | --- | --- | --- |
| NC(=O)CCSC(CC(=O)c1ccc(Cl)cc1)c1ccc(Cl)cc1 (stereo unspecified) | > 100 µM | 25.6 µM | 8.11 µM | > 100 µM | 42.9 µM | 83.2 µM | 56 µM | 97.8 µM | 12.2 µM | > 100 µM | – | – | – | – | – | – | – | – | – | – |
| COC(=O)c1ccc2c(c1)sc1nc(-c3ccc(OC)cc3)cn12 | > 100 µM | > 100 µM | > 100 µM | > 100 µM | 53.6 µM | > 100 µM | > 100 µM | > 100 µM | > 100 µM | > 100 µM | – | – | – | – | – | – | – | – | – | – |
| Cc1ccc2c3c1[C@@H]1O[C@@H]1c1cccc(c1-3)[C@@H]1O[C@H]21 | 60.2 µM | – | – | 23.5 µM | 30.6 µM | 25.5 µM | 40.2 µM | 43.6 µM | – | 33 µM | – | – | – | – | – | – | – | – | – | – |
| Cc1cc2c(cc1Cl)SC(c1ccccc1O)NS2(=O)=O (stereo unspecified) | > 100 µM | > 100 µM | 26.3 µM | > 100 µM | > 100 µM | > 100 µM | > 100 µM | > 100 µM | 42.5 µM | > 100 µM | – | – | – | – | – | – | – | – | – | – |
| Cc1ccc(C(=O)Nc2ncn(C3CC(O)C(CO)O3)c(=O)n2)cc1 (stereo unspecified) | – | – | > 100 µM | > 100 µM | > 100 µM | > 100 µM | > 100 µM | > 100 µM | > 100 µM | > 100 µM | – | – | – | – | – | – | – | – | – | – |
| CC(C)(C)c1cc(-c2nc3ccc(N4CCN(CCO)CC4)cc3[nH]2)cc(C(C)(C)C)c1O | 4.68 µM | 4.86 µM | – | 3.1 µM | 3.14 µM | > 100 µM | 3.22 µM | > 100 µM | – | – | 1.73 µM | 1.84 µM | 1.68 µM | 1.74 µM | 3.77 µM | 1.73 µM | 6.1 µM | – | – | – |
| N=C(N)c1ccc(N=Nc2c(O)ccc3cc4c(N=Nc5ccc(C(=N)N)cc5)c(O)ccc4cc23)cc1 | > 100 µM | 84.6 µM | > 100 µM | > 100 µM | > 100 µM | > 100 µM | > 100 µM | – | > 100 µM | > 100 µM | – | – | – | – | – | – | – | – | – | – |
| CCCCCCCCCCCCSC(=S)c1c(C)[nH]n(CCCCCCCCCCCC)c1=O | – | > 100 µM | > 100 µM | > 100 µM | > 100 µM | > 100 µM | > 100 µM | > 100 µM | > 100 µM | > 100 µM | – | – | – | – | – | – | – | – | – | – |
| N#Cc1c(-c2ccc(Cl)cc2)c2c([nH]c1=O)-c1cc([N+](=O)[O-])ccc1CCC2 | 99.2 µM | 65.1 µM | > 100 µM | 63.6 µM | 40.7 µM | 34.7 µM | 32.4 µM | 37.7 µM | > 100 µM | 57 µM | – | – | – | – | – | – | – | – | – | – |
| CCN(CCO)CCNc1ccc(C)c2sc3ccccc3c(=O)c12 | 7.49 µM | 11.3 µM | 27.6 µM | 3.77 µM | 7.66 µM | 23.9 µM | 3.34 µM | 31.2 µM | 5.5 µM | 6.16 µM | – | – | – | – | – | – | – | – | – | – |
| COc1ccc(N=Cc2ccc(N(CCC#N)S(=O)(=O)c3ccccc3)cc2C)cc1 | – | > 100 µM | > 100 µM | > 100 µM | > 100 µM | > 100 µM | > 100 µM | – | > 100 µM | > 100 µM | – | – | – | – | – | – | – | – | – | – |
| COc1cc(/C=C2\N=C(c3ccccc3)N(c3nc4ccc(Sc5ccccc5)cc4[nH]3)C2=O)cc(OC)c1OC | > 100 µM | 37.8 µM | > 100 µM | 67.4 µM | 26.3 µM | 92.4 µM | 38.7 µM | 71.8 µM | > 100 µM | 45.6 µM | – | – | – | – | – | – | – | – | – | – |
| O=c1c(-c2ccccc2)c(SCCN2CCOCC2)n(-c2ccccc2)c(=S)n1-c1ccccc1 | > 100 µM | > 100 µM | > 100 µM | > 100 µM | > 100 µM | – | > 100 µM | > 100 µM | > 100 µM | > 100 µM | – | – | – | – | – | – | – | – | – | – |
| C=C1c2nc3ccccc3n2C=C(c2ccc(Cl)cc2)N1c1ccc(OCCN2CCCCC2)cc1 | – | 45 µM | – | > 100 µM | > 45 µM | > 45 µM | > 100 µM | > 100 µM | > 45 µM | 37.4 µM and > 100 µM | – | – | 32.8 µM | – | – | > 100 µM | > 100 µM | 0.226 µM | > 100 µM | – |
| O=C([CH-]C(=O)c1ccccc1)c1ccccc1.O=C([CH-]C(=O)c1ccccc1)c1ccccc1.O=C([CH-]C(=O)c1ccccc1)c1ccccc1.[Cl-].[Hf+4] | – | > 100 µM | – | 82.5 µM | 31.5 µM | > 100 µM | > 100 µM | 63 µM | > 100 µM | 69.5 µM | – | 18.1 µM | 20.3 µM | 11.1 µM | 41.3 µM | 14.6 µM | 18.6 µM | – | 22.2 µM | 10.8 µM |
| Cn1c2cn[nH]c(=O)c2c2ccc3ccccc3c21 | 53.1 µM | > 100 µM | > 100 µM | – | > 100 µM | > 100 µM | > 100 µM | 80 µM | > 100 µM | > 100 µM | – | – | – | – | – | – | – | – | – | – |
| Cc1cn(Cc2cn(CC3OC(n4cc(C)c(=O)[nH]c4=O)CC3O)nn2)c(=O)[nH]c1=O (stereo unspecified) | > 100 µM | – | > 100 µM | > 100 µM | > 100 µM | > 100 µM | > 100 µM | > 100 µM | > 100 µM | > 100 µM | – | – | – | – | – | – | – | – | – | – |
